# Assay results taken from US20060263449A1 (Advanced Gene Technology, Corp., priority 2005, published 2006).
# Tests used:
# [1] = test system: 67 molecular targets including G-protein coupled receptors, ion channel-coupled receptors, transporters, ion channels and enzymes; assay: In vitro safety evaluation, whole panel; conditions: andrographolide at a concentration of 25 μM in the herbal composition
# Procedure: To confirm possible adverse effects, extensive in vitro studies covering a broad range of physical function-related 67 molecular targets including G-protein coupled receptors, ion channel-coupled receptors, transporters, ion channels and enzymes, were conducted. […] Interactions found in the primary assay can be indicative of in vivo side effects or safety.
# [2] = test system: phytohemagglutinin (PHA)-stimulated whole blood cell; conditions: cultivated; cited from earlier work
smiles,measurement,setting,value
C=C1CC[C@@H]2[C@](C)(CO)[C@H](O)CC[C@@]2(C)[C@@H]1C/C=C1/C(=O)OC[C@H]1O [andrographolide],side-effect in the in vitro safety evaluation,[1],no significant side-effect
same,formation of TNFα and β2MG,[2],increase
